# Laboratory results from BindingDB's records for doi:10.1021/jm9805642 (Pharmacia and Upjohn, 1999).
# Target: Cytosol aminopeptidase (Sus scrofa) (UniProt P28839)
# Assay: Inhibition against Leucyl aminopeptidase from pig kidney.
# Sequence of Cytosol aminopeptidase (Sus scrofa) (P28839 whole entry, looked up): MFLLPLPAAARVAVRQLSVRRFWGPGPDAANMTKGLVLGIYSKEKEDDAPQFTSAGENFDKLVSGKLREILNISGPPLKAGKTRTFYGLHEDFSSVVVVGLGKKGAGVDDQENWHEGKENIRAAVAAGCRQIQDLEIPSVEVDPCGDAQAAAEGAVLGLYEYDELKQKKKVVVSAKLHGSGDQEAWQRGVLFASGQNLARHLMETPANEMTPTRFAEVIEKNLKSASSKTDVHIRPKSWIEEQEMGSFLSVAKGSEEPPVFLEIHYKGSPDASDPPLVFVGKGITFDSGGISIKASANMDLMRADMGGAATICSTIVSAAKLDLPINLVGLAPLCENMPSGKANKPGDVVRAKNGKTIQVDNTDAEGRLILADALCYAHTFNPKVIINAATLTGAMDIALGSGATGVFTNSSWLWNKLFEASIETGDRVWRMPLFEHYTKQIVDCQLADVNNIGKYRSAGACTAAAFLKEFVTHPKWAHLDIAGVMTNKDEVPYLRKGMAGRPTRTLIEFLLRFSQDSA
row,IC50,Compound
1,> 1000 µM,C[C@H](NC(=O)[C@@H]1CCCN1C(=O)C1CCCC1S)C(N)=O (stereo partly drawn) [(S)-1-(2-Mercapto-cyclopentanecarbonyl)-pyrrolidine-2-carboxylic acid ((S)-1-carbamoyl-ethyl)-amide]
2,2.5 µM,"NC(=O)[C@@H]1CCCN1C(=O)[C@@H]1CCCN1C(=O)[C@@H](O)[C@H](N)Cc1ccccc1 [(S)-1-[(S)-1-((2S,3R)-3-Amino-2-hydroxy-4-phenyl-butyryl)-pyrrolidine-2-carbonyl]-pyrrolidine-2-carboxylic acid amide]"
3,> 1000 µM,C[C@H](NC(=O)[C@@H]1CCCN1C(=O)C1CCCCC1C(=O)NO)C(N)=O (stereo partly drawn) [(S)-1-(2-Hydroxycarbamoyl-cyclohexanecarbonyl)-pyrrolidine-2-carboxylic acid ((S)-1-carbamoyl-ethyl)-amide]
4,1.6 µM,C[C@H](NC(=O)[C@@H]1CCCN1C(=O)[C@@H]1CC(O)CN1C(=O)[C@@H](O)[C@H](N)Cc1ccccc1)C(N)=O (stereo not given in full) [1-[1-(3-Amino-2-hydroxy-4-phenyl-butyryl)-4-hydroxy-pyrrolidine-2-carbonyl]-pyrrolidine-2-carboxylic acid (1-carbamoyl-ethyl)-amide]
5,0.3 µM,"C[C@H](NC(=O)[C@@H]1CCCN1C(=O)[C@@H]1CCCN1C(=O)[C@@H](O)[C@H](N)Cc1ccccc1)C(N)=O [(S)-1-[(S)-1-((2S,3R)-3-Amino-2-hydroxy-4-phenyl-butyryl)-pyrrolidine-2-carbonyl]-pyrrolidine-2-carboxylic acid ((S)-1-carbamoyl-ethyl)-amide]"
